Data taken from ChEMBL document CHEMBL3885881, “DrugMatrix”.

Species on record: Rattus norvegicus
Experiment: DrugMatrix - Regimen: Daily Repeat
Format: toxicity, organism-based, Sprague-Dawley
Parameters: regimen Daily Repeat, gender Male, age 6-8 weeks
Conditions: in vivo, po, route oral GAVAGE, vehicle .5 % CMC; for BASOPHIL / EOSINOPHIL / ERYTHROCYTE COUNT / HEMATOCRIT / HEMOGLOBIN / LEUKOCYTE COUNT / LYMPHOCYTE / MEAN CORPUSCULAR HEMOGLOBIN / MEAN CORPUSCULAR HEMOGLOBIN CONCENTRATION / MEAN CORPUSCULAR VOLUME / MONOCYTE / NEUTROPHIL / PLATELET COUNT: tissue Blood; for ALANINE AMINOTRANSFERASE / ALBUMIN / ALKALINE PHOSPHATASE / ASPARTATE AMINOTRANSFERASE / BLOOD UREA NITROGEN / CHLORIDE / CHOLESTEROL / CREATINE PHOSPHOKINASE / CREATININE / GLUCOSE / PHOSPHORUS / POTASSIUM / SODIUM / TOTAL BILIRUBIN / TOTAL PROTEIN: tissue Plasma
[1] = 0 mg/kg, 72 h, dose level Control, time 3 day
[2] = 0 mg/kg, 120 h, dose level Control, time 5 day
[3] = 8 mg/kg, 72 h, dose level Low, time 3 day
[4] = 8 mg/kg, 120 h, dose level Low, time 5 day
[5] = 24 mg/kg, 72 h, dose level High, time 3 day
[6] = 24 mg/kg, 120 h, dose level High, time 5 day

**Q.** Which results are given for CCc1cccc2c3c([nH]c12)C(CC)(CC(=O)O)OCC3 (stereo not drawn) [ETODOLAC]?
**A.** BASOPHIL [1]: 1.52%; EOSINOPHIL [1]: 0.98%; ERYTHROCYTE COUNT [1]: 6.96 x10E6/uL; HEMATOCRIT [1]: 44.65%; HEMOGLOBIN [1]: 13.62 G/DL; LEUKOCYTE COUNT [1]: 9.83 x10E3/uL; LYMPHOCYTE [1]: 76.48%; MEAN CORPUSCULAR HEMOGLOBIN [1]: 19.57 pg; MEAN CORPUSCULAR HEMOGLOBIN CONCENTRATION [1]: 30.47 G/DL; MEAN CORPUSCULAR VOLUME [1]: 64.22 fL; MONOCYTE [1]: 2.13%; NEUTROPHIL [1]: 18.6%; PLATELET COUNT [1]: 1217.17 x10E3/uL; ALANINE AMINOTRANSFERASE [1]: 41 u/L; ALBUMIN [1]: 3.77 G/DL; ALKALINE PHOSPHATASE [1]: 411.83 u/L; ASPARTATE AMINOTRANSFERASE [1]: 62.83 u/L; BLOOD UREA NITROGEN [1]: 15.17 mg/dL; CHLORIDE [1]: 104.33 MEQ/L; CHOLESTEROL [1]: 71.17 mg/dL; CREATINE PHOSPHOKINASE [1]: 123.5 u/L; CREATININE [1]: 0.55 mg/dL; GLUCOSE [1]: 182.67 mg/dL; PHOSPHORUS [1]: 11.23 mg/dL; POTASSIUM [1]: 7.03 MEQ/L; SODIUM [1]: 148 MEQ/L; TOTAL BILIRUBIN [1]: 0.57 mg/dL; TOTAL PROTEIN [1]: 6.85 G/DL; BASOPHIL [2]: 1.35%; EOSINOPHIL [2]: 0.43%; ERYTHROCYTE COUNT [2]: 6.96 x10E6/uL; HEMATOCRIT [2]: 44.35%; HEMOGLOBIN [2]: 13.98 G/DL; LEUKOCYTE COUNT [2]: 9.45 x10E3/uL; LYMPHOCYTE [2]: 80.83%; MEAN CORPUSCULAR HEMOGLOBIN [2]: 20.1 pg; MEAN CORPUSCULAR HEMOGLOBIN CONCENTRATION [2]: 31.52 G/DL; MEAN CORPUSCULAR VOLUME [2]: 63.72 fL; MONOCYTE [2]: 2.37%; NEUTROPHIL [2]: 14.05%; PLATELET COUNT [2]: 1298 x10E3/uL; ALANINE AMINOTRANSFERASE [2]: 42.17 u/L; ALBUMIN [2]: 3.77 G/DL; ALKALINE PHOSPHATASE [2]: 419 u/L; ASPARTATE AMINOTRANSFERASE [2]: 66.67 u/L; BLOOD UREA NITROGEN [2]: 16.67 mg/dL; CHLORIDE [2]: 103.17 MEQ/L; CHOLESTEROL [2]: 66.33 mg/dL; CREATINE PHOSPHOKINASE [2]: 148.33 u/L; CREATININE [2]: 0.58 mg/dL; GLUCOSE [2]: 196.83 mg/dL; PHOSPHORUS [2]: 11.8 mg/dL; POTASSIUM [2]: 6.47 MEQ/L; SODIUM [2]: 148.33 MEQ/L; TOTAL BILIRUBIN [2]: 0.53 mg/dL; TOTAL PROTEIN [2]: 6.77 G/DL; BASOPHIL [3]: 2.87%; EOSINOPHIL [3]: 0.5%; ERYTHROCYTE COUNT [3]: 7.29 x10E6/uL; HEMATOCRIT [3]: 46.3%; HEMOGLOBIN [3]: 14.43 G/DL; LEUKOCYTE COUNT [3]: 10.83 x10E3/uL; LYMPHOCYTE [3]: 74.43%; MEAN CORPUSCULAR HEMOGLOBIN [3]: 19.83 pg; MEAN CORPUSCULAR HEMOGLOBIN CONCENTRATION [3]: 31.17 G/DL; MEAN CORPUSCULAR VOLUME [3]: 63.57 fL; MONOCYTE [3]: 2.53%; NEUTROPHIL [3]: 19.13%; PLATELET COUNT [3]: 1601 x10E3/uL; ALANINE AMINOTRANSFERASE [3]: 44.33 u/L; ALBUMIN [3]: 3.8 G/DL; ALKALINE PHOSPHATASE [3]: 358.67 u/L; ASPARTATE AMINOTRANSFERASE [3]: 64 u/L; BLOOD UREA NITROGEN [3]: 12.33 mg/dL; CHLORIDE [3]: 102.67 MEQ/L; CHOLESTEROL [3]: 62 mg/dL; CREATINE PHOSPHOKINASE [3]: 129.67 u/L; CREATININE [3]: 0.57 mg/dL; GLUCOSE [3]: 182.33 mg/dL; PHOSPHORUS [3]: 13.07 mg/dL; POTASSIUM [3]: 7.23 MEQ/L; SODIUM [3]: 148.67 MEQ/L; TOTAL BILIRUBIN [3]: 0.37 mg/dL; TOTAL PROTEIN [3]: 6.7 G/DL; BASOPHIL [4]: 2.2%; EOSINOPHIL [4]: 0.17%; ERYTHROCYTE COUNT [4]: 7.21 x10E6/uL; HEMATOCRIT [4]: 45.2%; HEMOGLOBIN [4]: 14.13 G/DL; LEUKOCYTE COUNT [4]: 12.43 x10E3/uL; LYMPHOCYTE [4]: 78.07%; MEAN CORPUSCULAR HEMOGLOBIN [4]: 19.67 pg; MEAN CORPUSCULAR HEMOGLOBIN CONCENTRATION [4]: 31.37 G/DL; MEAN CORPUSCULAR VOLUME [4]: 62.7 fL; MONOCYTE [4]: 3.4%; NEUTROPHIL [4]: 15.23%; PLATELET COUNT [4]: 1492.67 x10E3/uL; ALANINE AMINOTRANSFERASE [4]: 41.67 u/L; ALBUMIN [4]: 3.8 G/DL; ALKALINE PHOSPHATASE [4]: 376 u/L; ASPARTATE AMINOTRANSFERASE [4]: 62.67 u/L; BLOOD UREA NITROGEN [4]: 16 mg/dL; CHLORIDE [4]: 102 MEQ/L; CHOLESTEROL [4]: 67.33 mg/dL; CREATINE PHOSPHOKINASE [4]: 145 u/L; CREATININE [4]: 0.6 mg/dL; GLUCOSE [4]: 181.33 mg/dL; PHOSPHORUS [4]: 12.37 mg/dL; POTASSIUM [4]: 6.73 MEQ/L; SODIUM [4]: 149 MEQ/L; TOTAL BILIRUBIN [4]: 0.33 mg/dL; TOTAL PROTEIN [4]: 6.57 G/DL; BASOPHIL [5]: 1.07%; EOSINOPHIL [5]: 0.27%; ERYTHROCYTE COUNT [5]: 5.61 x10E6/uL; HEMATOCRIT [5]: 34.27%; HEMOGLOBIN [5]: 10.67 G/DL; LEUKOCYTE COUNT [5]: 17.3 x10E3/uL; LYMPHOCYTE [5]: 66.33%; MEAN CORPUSCULAR HEMOGLOBIN [5]: 19 pg; MEAN CORPUSCULAR HEMOGLOBIN CONCENTRATION [5]: 31.13 G/DL; MEAN CORPUSCULAR VOLUME [5]: 61.13 fL; MONOCYTE [5]: 3.5%; NEUTROPHIL [5]: 27.87%; PLATELET COUNT [5]: 1221.33 x10E3/uL; ALANINE AMINOTRANSFERASE [5]: 31 u/L; ALBUMIN [5]: 2.83 G/DL; ALKALINE PHOSPHATASE [5]: 157 u/L; ASPARTATE AMINOTRANSFERASE [5]: 47.67 u/L; BLOOD UREA NITROGEN [5]: 12.67 mg/dL; CHLORIDE [5]: 105 MEQ/L; CHOLESTEROL [5]: 58.67 mg/dL; CREATINE PHOSPHOKINASE [5]: 142.33 u/L; CREATININE [5]: 0.47 mg/dL; GLUCOSE [5]: 168 mg/dL; PHOSPHORUS [5]: 11.97 mg/dL; POTASSIUM [5]: 6.27 MEQ/L; SODIUM [5]: 148.33 MEQ/L; TOTAL BILIRUBIN [5]: 0.2 mg/dL; TOTAL PROTEIN [5]: 5 G/DL; BASOPHIL [6]: 1.2%; EOSINOPHIL [6]: 0.25%; ERYTHROCYTE COUNT [6]: 4.38 x10E6/uL; HEMATOCRIT [6]: 26.95%; HEMOGLOBIN [6]: 8.35 G/DL; LEUKOCYTE COUNT [6]: 3.5 x10E3/uL; LYMPHOCYTE [6]: 64.7%; MEAN CORPUSCULAR HEMOGLOBIN [6]: 19.1 pg; MEAN CORPUSCULAR HEMOGLOBIN CONCENTRATION [6]: 31 G/DL; MEAN CORPUSCULAR VOLUME [6]: 61.65 fL; MONOCYTE [6]: 3.45%; NEUTROPHIL [6]: 24.5%; PLATELET COUNT [6]: 1541 x10E3/uL; ALANINE AMINOTRANSFERASE [6]: 27 u/L; ALBUMIN [6]: 2.6 G/DL; ALKALINE PHOSPHATASE [6]: 256 u/L; ASPARTATE AMINOTRANSFERASE [6]: 105 u/L; BLOOD UREA NITROGEN [6]: 64 mg/dL; CHLORIDE [6]: 103 MEQ/L; CHOLESTEROL [6]: 43 mg/dL; CREATINE PHOSPHOKINASE [6]: 183 u/L; CREATININE [6]: 0.6 mg/dL; GLUCOSE [6]: 107 mg/dL; PHOSPHORUS [6]: 19.1 mg/dL; POTASSIUM [6]: 9.9 MEQ/L; SODIUM [6]: 141 MEQ/L; TOTAL BILIRUBIN [6]: 0.3 mg/dL; TOTAL PROTEIN [6]: 5.3 G/DL
